Measured values taken from patent US7851623B2, “Chemical process” (AstraZeneca AB, priority 2006, dated 2010).

How the values were obtained:
tumour models = conditions: once-daily oral administration; cited from earlier work
Calu-6 tumour xenograft = test: in vivo solid tumour model (WO 00/47212), Calu-6 tumour xenograft growth; conditions: once-daily oral, 28 days
HUVEC [1] = test: HUVEC assay, VEGF-stimulated endothelial cell proliferation; format: cell-based; conditions: Homo sapiens, read-out: IC50 for inhibition of VEGF-stimulated endothelial cell proliferation
HUVEC [2] = test: HUVEC assay, basal endothelial cell proliferation; format: cell-based; conditions: Homo sapiens, basal (unstimulated) proliferation, read-out: IC50 for inhibition of basal endothelial cell proliferation

Question: For COc1cc2c(Oc3ccc4[nH]c(C)cc4c3F)ncnc2cc1OCCCN1CCCC1 [AZD2171, 4-[(4-fluoro-2-methyl-1H-indol-5-yl)oxy]-6-methoxy-7-[3-(pyrrolidin-1-yl)propoxy]quinazoline], which “anti-tumour activity in a range of models” value (tumour models) is on record?
Answer: broad-spectrum anti-tumour activity

Question: What about the “inhibition of growth of Calu-6 tumour xenograft” value (“inhibition” for short) (Calu-6 tumour xenograft; 1.5 mg/kg/day, P<0.01 one-tailed t test) of the same molecule?
Answer: 49%

Question: What about the “inhibition” value (Calu-6 tumour xenograft; 3 mg/kg/day, P<0.0001 one-tailed t test) of the same molecule?
Answer: 69%

Question: What about the “inhibition” value (Calu-6 tumour xenograft; 6 mg/kg/day, P<0.0001 one-tailed t test) of the same molecule?
Answer: 91%

Question: And the IC50 (HUVEC [1])?
Answer: 0.4 ± 0.2 nM

Question: What about the IC50 (HUVEC [2]) of the same molecule?
Answer: > 500 nM
